Reference: article PMC7497403, “Development of Potent PfCLK3 Inhibitors Based on TCMDC-135051 as a New Class of Antimalarials” (Journal of Medicinal Chemistry, 2020)

Tests used:
Experiment in all cases: Kinase screen
Assay type in all cases: biochemical
Aurora A = Aurora A (Homo sapiens, UniProt O14965)
From the text: (§1) With verapamil used as a positive control.
(§2) V. Distribution coefficient (LogD7.4)

BRSK1 = BRSK1 (Homo sapiens, UniProt Q8TDC3)
From the text: as §1, §2

BTK = BTK (Homo sapiens, UniProt Q06187)
BTK, sequence (Q06187 whole entry): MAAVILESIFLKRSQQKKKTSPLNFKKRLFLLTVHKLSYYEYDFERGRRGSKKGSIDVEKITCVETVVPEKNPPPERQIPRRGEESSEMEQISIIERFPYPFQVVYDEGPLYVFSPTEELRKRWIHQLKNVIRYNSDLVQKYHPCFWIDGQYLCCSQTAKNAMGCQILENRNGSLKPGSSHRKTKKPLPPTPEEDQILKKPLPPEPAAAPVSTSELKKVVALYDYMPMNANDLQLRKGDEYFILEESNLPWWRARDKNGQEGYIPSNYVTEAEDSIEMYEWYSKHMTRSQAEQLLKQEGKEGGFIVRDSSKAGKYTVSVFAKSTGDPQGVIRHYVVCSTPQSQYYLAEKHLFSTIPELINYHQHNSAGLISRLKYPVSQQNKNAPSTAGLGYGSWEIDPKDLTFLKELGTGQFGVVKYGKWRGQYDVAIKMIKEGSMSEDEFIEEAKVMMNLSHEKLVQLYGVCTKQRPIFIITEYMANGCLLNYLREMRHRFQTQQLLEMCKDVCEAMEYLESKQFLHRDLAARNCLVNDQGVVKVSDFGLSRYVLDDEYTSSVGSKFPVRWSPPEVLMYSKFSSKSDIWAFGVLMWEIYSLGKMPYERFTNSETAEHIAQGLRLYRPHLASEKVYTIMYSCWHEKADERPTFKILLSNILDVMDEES
From the text: as §1, §2

CDK2-Cyclin A = CDK2-Cyclin A (Homo sapiens, UniProt P24941)
From the text: as §1, §2

CHK1 = CHK1 (Homo sapiens, UniProt O14757)
From the text: as §1, §2

CK1γ2 = CK1γ2 (Homo sapiens, UniProt P78368)
CK1γ2, sequence (P78368 whole entry): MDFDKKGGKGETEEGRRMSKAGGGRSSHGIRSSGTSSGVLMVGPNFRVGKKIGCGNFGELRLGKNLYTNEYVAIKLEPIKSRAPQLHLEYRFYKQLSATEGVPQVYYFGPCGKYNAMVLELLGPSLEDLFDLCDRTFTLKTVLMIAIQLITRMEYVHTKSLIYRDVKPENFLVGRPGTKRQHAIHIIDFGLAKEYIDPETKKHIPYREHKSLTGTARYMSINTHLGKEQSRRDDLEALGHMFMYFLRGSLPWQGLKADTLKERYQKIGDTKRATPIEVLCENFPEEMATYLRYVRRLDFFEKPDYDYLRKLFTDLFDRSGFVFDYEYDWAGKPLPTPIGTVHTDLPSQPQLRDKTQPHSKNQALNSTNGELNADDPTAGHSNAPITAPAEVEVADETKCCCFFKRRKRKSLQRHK
From the text: as §1, §2

EPH-B3 = EPH-B3 (Homo sapiens, UniProt P54753)
From the text: as §1, §2

ERK1 = ERK1 (Homo sapiens, UniProt P27361)
ERK1, sequence (P27361 whole entry): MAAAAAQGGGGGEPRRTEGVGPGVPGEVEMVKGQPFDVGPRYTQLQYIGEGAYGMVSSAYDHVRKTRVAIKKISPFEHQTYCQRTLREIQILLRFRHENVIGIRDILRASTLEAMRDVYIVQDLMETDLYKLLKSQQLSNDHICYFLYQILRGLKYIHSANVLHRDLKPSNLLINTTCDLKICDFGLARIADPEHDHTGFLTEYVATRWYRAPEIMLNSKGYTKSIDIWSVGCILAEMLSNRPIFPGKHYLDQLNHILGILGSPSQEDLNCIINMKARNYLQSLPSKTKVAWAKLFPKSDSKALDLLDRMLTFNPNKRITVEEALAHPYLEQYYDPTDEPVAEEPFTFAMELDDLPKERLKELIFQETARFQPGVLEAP
From the text: as §1, §2

ERK2 = ERK2 (Homo sapiens, UniProt P28482)
ERK2, sequence (P28482 whole entry): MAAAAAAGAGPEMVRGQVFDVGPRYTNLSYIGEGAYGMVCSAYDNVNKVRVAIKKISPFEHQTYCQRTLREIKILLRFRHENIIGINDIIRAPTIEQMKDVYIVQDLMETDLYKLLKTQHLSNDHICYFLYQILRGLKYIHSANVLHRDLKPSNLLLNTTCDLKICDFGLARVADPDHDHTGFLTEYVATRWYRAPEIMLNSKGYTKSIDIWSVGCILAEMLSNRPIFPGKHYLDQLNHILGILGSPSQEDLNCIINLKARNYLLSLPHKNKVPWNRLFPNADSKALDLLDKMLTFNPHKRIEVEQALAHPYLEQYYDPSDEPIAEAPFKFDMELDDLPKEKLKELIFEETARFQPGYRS
From the text: as §1, §2

HIPK1 = HIPK1 (Homo sapiens, UniProt Q86Z02)
From the text: as §1, §2

HIPK2 = HIPK2 (Homo sapiens, UniProt Q9H2X6)
From the text: as §1, §2

IKKe = IKKe (Homo sapiens, UniProt Q14164)
From the text: as §1, §2

IR = IR (Homo sapiens, UniProt P06213)
IR, sequence (P06213 28-1382): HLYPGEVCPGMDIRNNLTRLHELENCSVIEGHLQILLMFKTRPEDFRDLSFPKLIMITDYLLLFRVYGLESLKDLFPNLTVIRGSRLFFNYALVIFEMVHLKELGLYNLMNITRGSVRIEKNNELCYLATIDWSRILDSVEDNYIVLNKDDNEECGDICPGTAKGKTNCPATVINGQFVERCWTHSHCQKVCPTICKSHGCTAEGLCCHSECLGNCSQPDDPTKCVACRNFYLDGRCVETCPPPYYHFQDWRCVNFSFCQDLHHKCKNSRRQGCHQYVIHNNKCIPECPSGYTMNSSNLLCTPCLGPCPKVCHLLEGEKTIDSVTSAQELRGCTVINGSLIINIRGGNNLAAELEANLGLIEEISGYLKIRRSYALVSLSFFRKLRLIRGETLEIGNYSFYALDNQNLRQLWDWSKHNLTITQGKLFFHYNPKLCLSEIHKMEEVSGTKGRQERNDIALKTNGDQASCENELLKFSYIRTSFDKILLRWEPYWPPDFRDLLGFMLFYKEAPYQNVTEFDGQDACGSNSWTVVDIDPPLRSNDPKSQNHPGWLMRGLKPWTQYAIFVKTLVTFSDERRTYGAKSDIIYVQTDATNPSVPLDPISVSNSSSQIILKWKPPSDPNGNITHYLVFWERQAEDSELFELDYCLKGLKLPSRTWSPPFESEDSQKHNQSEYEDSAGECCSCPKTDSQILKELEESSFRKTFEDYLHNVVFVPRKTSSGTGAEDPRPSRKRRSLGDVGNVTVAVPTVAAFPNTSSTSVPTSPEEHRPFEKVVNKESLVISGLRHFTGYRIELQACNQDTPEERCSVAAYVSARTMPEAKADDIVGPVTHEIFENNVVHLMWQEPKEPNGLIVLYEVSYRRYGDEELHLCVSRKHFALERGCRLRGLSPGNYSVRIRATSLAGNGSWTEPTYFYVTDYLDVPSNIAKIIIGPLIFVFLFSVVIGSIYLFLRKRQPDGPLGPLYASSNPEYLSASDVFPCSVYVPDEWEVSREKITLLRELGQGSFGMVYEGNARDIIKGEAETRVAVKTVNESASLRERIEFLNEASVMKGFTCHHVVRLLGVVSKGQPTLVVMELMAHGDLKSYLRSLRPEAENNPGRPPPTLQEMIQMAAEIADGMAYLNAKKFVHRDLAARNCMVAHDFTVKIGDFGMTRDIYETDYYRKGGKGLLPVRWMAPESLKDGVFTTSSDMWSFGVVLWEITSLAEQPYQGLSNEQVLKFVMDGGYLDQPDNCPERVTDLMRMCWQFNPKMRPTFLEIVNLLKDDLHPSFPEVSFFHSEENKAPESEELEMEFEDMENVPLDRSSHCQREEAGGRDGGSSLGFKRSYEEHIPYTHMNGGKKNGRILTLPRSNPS
From the text: as §1, §2

IRAK1 = IRAK1 (Homo sapiens, UniProt P51617)
From the text: as §1, §2

JAK3 = JAK3 (Homo sapiens, UniProt P52333)
From the text: as §1, §2

JNK3 = JNK3 (Homo sapiens, UniProt P53779)
JNK3, sequence (P53779 whole entry): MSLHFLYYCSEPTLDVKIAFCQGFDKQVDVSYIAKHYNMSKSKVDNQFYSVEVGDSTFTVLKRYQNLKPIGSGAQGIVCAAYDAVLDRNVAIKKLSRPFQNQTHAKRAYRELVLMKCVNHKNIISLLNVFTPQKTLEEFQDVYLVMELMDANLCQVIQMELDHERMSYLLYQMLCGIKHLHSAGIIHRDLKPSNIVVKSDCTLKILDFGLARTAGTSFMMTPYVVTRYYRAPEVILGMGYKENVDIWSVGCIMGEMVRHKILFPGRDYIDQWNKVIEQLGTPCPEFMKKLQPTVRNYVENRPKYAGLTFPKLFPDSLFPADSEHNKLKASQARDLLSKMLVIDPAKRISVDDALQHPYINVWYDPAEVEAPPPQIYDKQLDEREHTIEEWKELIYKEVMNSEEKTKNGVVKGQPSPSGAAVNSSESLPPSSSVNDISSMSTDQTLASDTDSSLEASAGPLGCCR
From the text: as §1, §2

MAP4K3 = MAP4K3 (Homo sapiens, UniProt Q8IVH8)
MAP4K3, sequence (Q8IVH8 whole entry): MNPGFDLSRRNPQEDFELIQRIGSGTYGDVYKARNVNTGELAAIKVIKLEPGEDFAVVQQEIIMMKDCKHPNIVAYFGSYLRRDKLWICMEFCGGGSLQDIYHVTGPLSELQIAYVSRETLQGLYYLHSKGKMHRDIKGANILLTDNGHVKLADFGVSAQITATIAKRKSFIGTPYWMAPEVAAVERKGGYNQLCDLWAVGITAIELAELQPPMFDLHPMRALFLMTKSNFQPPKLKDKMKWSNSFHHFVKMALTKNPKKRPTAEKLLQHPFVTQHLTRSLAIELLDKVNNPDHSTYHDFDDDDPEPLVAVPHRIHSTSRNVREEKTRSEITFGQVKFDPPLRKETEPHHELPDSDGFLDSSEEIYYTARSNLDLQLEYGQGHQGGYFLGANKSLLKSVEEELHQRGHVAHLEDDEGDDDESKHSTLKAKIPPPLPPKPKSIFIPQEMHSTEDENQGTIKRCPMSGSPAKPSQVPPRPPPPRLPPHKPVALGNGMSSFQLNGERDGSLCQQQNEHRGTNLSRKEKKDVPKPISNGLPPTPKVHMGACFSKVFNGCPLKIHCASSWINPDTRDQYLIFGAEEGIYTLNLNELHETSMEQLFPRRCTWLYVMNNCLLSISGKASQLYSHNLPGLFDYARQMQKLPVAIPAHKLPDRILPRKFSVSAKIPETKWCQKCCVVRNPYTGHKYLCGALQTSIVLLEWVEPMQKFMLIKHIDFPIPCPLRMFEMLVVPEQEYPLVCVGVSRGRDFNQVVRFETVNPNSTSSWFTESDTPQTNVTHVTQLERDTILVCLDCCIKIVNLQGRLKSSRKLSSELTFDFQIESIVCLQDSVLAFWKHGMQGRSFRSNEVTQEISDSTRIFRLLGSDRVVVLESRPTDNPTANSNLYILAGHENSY
From the text: as §1, §2

MAPKAP-K2 = MAPKAP-K2 (Homo sapiens, UniProt P49137)
From the text: as §1, §2

MARK4 = MARK4 (Homo sapiens, UniProt Q96L34)
From the text: as §1, §2

MEKK1 = MEKK1 (Homo sapiens, UniProt Q13233)
From the text: as §1, §2

MINK1 = MINK1 (Homo sapiens, UniProt Q8N4C8)
From the text: as §1, §2

MKK1 = MKK1 (Homo sapiens, UniProt Q02750)
From the text: as §1, §2

MKK6 = MKK6 (Homo sapiens, UniProt P52564)
From the text: as §1, §2

MNK2 = MNK2 (Homo sapiens, UniProt Q9HBH9)
From the text: as §1, §2

MPSK1 = MPSK1 (Homo sapiens, UniProt O75716)
From the text: as §1, §2

MST2 = MST2 (Homo sapiens, UniProt Q13188)
From the text: as §1, §2

MST4 = MST4 (Homo sapiens, UniProt Q9P289)
From the text: as §1, §2

NUAK1 = NUAK1 (Homo sapiens, UniProt O60285)
From the text: as §1, §2

PAK5 = PAK5 (Homo sapiens, UniProt Q9P286)
From the text: as §1, §2

PDK1 = PDK1 (Homo sapiens, UniProt O15530)
From the text: as §1, §2

PIM2 = PIM2 (Homo sapiens, UniProt Q9P1W9)
PIM2, sequence (Q9P1W9 whole entry): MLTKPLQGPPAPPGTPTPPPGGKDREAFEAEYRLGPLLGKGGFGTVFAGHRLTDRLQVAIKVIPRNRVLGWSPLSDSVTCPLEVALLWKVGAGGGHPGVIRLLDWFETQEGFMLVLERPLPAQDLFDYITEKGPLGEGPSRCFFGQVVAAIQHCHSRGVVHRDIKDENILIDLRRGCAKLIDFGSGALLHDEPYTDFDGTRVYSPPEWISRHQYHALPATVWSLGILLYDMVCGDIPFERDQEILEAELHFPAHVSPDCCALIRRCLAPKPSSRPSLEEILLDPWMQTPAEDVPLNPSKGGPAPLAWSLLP
From the text: as §1, §2

PKBa = PKBa (Homo sapiens, UniProt P31749)
From the text: as §1, §2

PKCγ = PKCγ (Homo sapiens, UniProt P05129)
From the text: as §1, §2

PLK1 = PLK1 (Homo sapiens, UniProt P53350)
From the text: as §1, §2

ROCK 2 = ROCK 2 (Homo sapiens, UniProt O75116)
From the text: as §1, §2

RSK1 = RSK1 (Homo sapiens, UniProt Q15418)
From the text: as §1, §2

RSK2 = RSK2 (Homo sapiens, UniProt P51812)
From the text: as §1, §2

S6K1 = S6K1 (Homo sapiens, UniProt P23443)
From the text: as §1, §2

SGK1 = SGK1 (Homo sapiens, UniProt O00141)
From the text: as §1, §2

TAO1 = TAO1 (Homo sapiens, UniProt Q7L7X3)
From the text: as §1, §2

TGFBR1 = TGFBR1 (Homo sapiens, UniProt P36897)
From the text: as §1, §2

TLK1 = TLK1 (Homo sapiens, UniProt Q9UKI8)
From the text: as §1, §2

TTBK2 = TTBK2 (Homo sapiens, UniProt Q6IQ55)
From the text: as §1, §2

TTK = TTK (Homo sapiens, UniProt P33981)
From the text: as §1, §2

ULK2 = ULK2 (Homo sapiens, UniProt Q8IYT8)
From the text: as §1, §2

p38g MAPK = p38g MAPK (Homo sapiens, UniProt P53778)
From the text: as §1, §2

CCN(CC)Cc1ccc(OC)c(-c2cc3c(-c4ccc(C(=O)O)c(C(C)C)c4)ccnc3[nH]2)c1 [analogue 1, 4-(2-(5-((Diethylamino)methyl)-2-methoxyphenyl)-1H-pyrrolo[2,3-b]pyridin-4-yl)-2-isopropylbenzoic Acid]
activity at 1 µM (Aurora A): 17%
activity at 1 µM (BRSK1): 66%
activity at 1 µM (BTK): 119%
activity at 1 µM (CDK2-Cyclin A): 12%
activity at 1 µM (CHK1): 78%
activity at 1 µM (CK1γ2): 93%
activity at 1 µM (EPH-B3): 108%
activity at 1 µM (ERK1): 100%
activity at 1 µM (ERK2): 115%
activity at 1 µM (HIPK1): 83%
activity at 1 µM (HIPK2): 56%
activity at 1 µM (IKKe): 52%
activity at 1 µM (IR): 77%
activity at 1 µM (IRAK1): 6%
activity at 1 µM (JAK3): 22%
activity at 1 µM (JNK3): 52%
activity at 1 µM (MAP4K3): 1%
activity at 1 µM (MAPKAP-K2): 102%
activity at 1 µM (MARK4): 59%
activity at 1 µM (MEKK1): 112%
activity at 1 µM (MINK1): 44%
activity at 1 µM (MKK1): 79%
activity at 1 µM (MKK6): 100%
activity at 1 µM (MNK2): 29%
activity at 1 µM (MPSK1): 104%
activity at 1 µM (MST2): 68%
activity at 1 µM (MST4): 59%
activity at 1 µM (NUAK1): 18%
activity at 1 µM (PAK5): 75%
activity at 1 µM (PDK1): 111%
activity at 1 µM (PIM2): 93%
activity at 1 µM (PKBa): 115%
activity at 1 µM (PKCγ): 114%
activity at 1 µM (PLK1): 104%
activity at 1 µM (ROCK 2): 92%
activity at 1 µM (RSK1): 106%
activity at 1 µM (RSK2): 87%
activity at 1 µM (S6K1): 87%
activity at 1 µM (SGK1): 38%
activity at 1 µM (TAO1): 39%
activity at 1 µM (TGFBR1): 6%
activity at 1 µM (TLK1): 106%
activity at 1 µM (TTBK2): 114%
activity at 1 µM (TTK): 86%
activity at 1 µM (ULK2): 96%
activity at 1 µM (p38g MAPK): 105%
